For assay [1], the system named is SW620 human colorectal cancer cells. In words: Potentiation of the growth inhibiting activity of MMS, MTT based cell viability assay. The following applies: read-out: Compounds potentiate the growth inhibiting activity of MMS (IC50).
Experimental: The synergistic potentiation effect of PARP inhibitors on the growth inhibiting activity of DNA damaging anticancer drugs such as methyl methanesulphonate (MIMS) were measured with SW620 human colorectal cancer cells (Shanghai Cancer Institute) using a MTT based cell viability assay. SW620 cells were grown and maintained in RPMI1640 (Gibco) medium supplemented with 10% FBS (Hyclone). In the first day of experiment, 4000 cells were seeded to each well of a 96-well cell culture plate and incubated at 37° C. and 5% CO2 in a cell culture incubator overnight. In the next day, the cell culture medium was removed. […] The serial dilutions of the reference compounds and the compounds to be tested were made with a 1:3 and 1:10 fashion in DMSO. The 10-fold concentrated solutions of these compounds were made by mixing 10 μl of the serial dilutions in DMSO with 90 μl fresh medium. The final concentration of DMSO in the medium was 1%. The cells were incubated at 37° C. in 5% CO2 cell culture incubator for additional 5 days (120 hours). Afterwards, the 96-well cell culture plate was taken out and 20 μl of MTT solution was added to each well and incubated at 37° C. for 4 h. The medium was removed and 100 μl DMSO was added to each well. The 96-well cell culture plates were shaked adequately for 10 min and readed in a Varioskan Flash plate reader (Thermo Fisher Scientific) at 520 and 690 nm. The data were analyzed by Prism 5 software (GraphPad). The obtained 520 nm absorbance readings substracting corresponding 690 nm reading were analyzed and plotted against the Log scale of the compound concentrations.
In assay [2] the test system is Human breast cancer cell line T47D. Description: Potentiation of MMS induced apoptosis, cell based caspase-3 activity assay.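 Also: Caspase-3 activity in cell lysates measured by fluorescence (RFU), EC50 fitted from sigmoidal curve of signal versus log compound concentration in presence of MMS.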 The following applies: read-out: Compounds potentiate the apoptosis inducing activity of MMS (EC50).
Experimental: Human breast cancer cell line T47D (Nanjing KeyGEN Biotech. CO., LTD.) was used to determine the potentiation effect of PARP-1 inhibitors on the apoptosis inducing activity of DNA damaging anticancer drugs such as MMS. Intracellular caspase-3 activity was used to measure cell apoptosis. Briefly, T47D cells were grown in DMEM/F12 cell culture medium (Hyclone) supplemented with 0.2 U/ml insulin (Genview) and 10% FBS (Hyclone). A day before experiment, 20000 of T47D cells were seeded to each well of a 96-well cell culture plate and maintained at 37° C. and 5% CO2 in a cell culture incubator overnight. On the day of experiment, cell culture medium was removed. […] The serial dilutions of the compounds to be tested and the reference compounds were made in a 1:3 and 1:10 fashion in DMSO. The 10-fold compound solutions were made by mixing 10 μl DMSO serial dilution solutions with 90 μl fresh growth medium. Twenty four hours later, the cells in the 96-well plates were centrifuged at 1000 g for 5 min and the supernatants were removed. 50 μl lysis buffer (10 mM Tris, pH 7.5, 0.1M NaCl, 1 mM EDTA, 0.01% Triton X-100) was added to each well and the plates were shaked horizontally for 30 min at 4° C. After centrifugation at 1000 g at 4° C. for 10 min, 20 μl of supernatant was transferred from each well to a corresponding well in a 384-well black plate. […] The plates were shaked to uniformly mix the wells and incubated at 37° C. for 3 h. […] The caspase-3 activity induced by the compounds was expressed as a relative fluorescence unit (RFU). The obtained fluorescence readings were analyzed using a commercial graphic software (GraphPad Prism 5) and plotted against the Log value of the compound concentrations. The EC50 values were obtained by fitting the data points with the equation of Y (fluorescence reading)=minimal fluorescence reading+(maximal fluorescence reading−minimal fluorescence reading)/(1+10̂(LogEC50−LogC)), where C is the concentration of the testing compound. The EC50 values were obtained by fitting the data points with S-shaped dose response curve equation (GraphPad Software, Inc).
In assay [3] the test system is BRCA-2 deficient CAPAN-1 human pancreatic cancer cells. In words: Cell growth inhibition of BRCA-2 deficient CAPAN-1 cells, MTT based cell viability assay. The following applies: read-out: Growth inhibition of CAPAN-1 cells by compounds (IC50).
Experimental: BRCA-2 deficient CAPAN-1 human pancreatic cancer cells were used to test the growth inhibiting activity of substituted 1-(arylmethyl)-5,6,7,8-tetrahydroquinazoline-2,4(1H,3H)-diones. Briefly, CAPAN-1 cells are grown and maintained in IMEM medium supplemented with 20% FBS. The assay takes 10 days to finish. On day 1, 6000 CAPAN-1 cells are seeded to each well of a 96-well plate. The cells are incubated at 37° C. in a CO2 cell culture incubator overnight. […] Ten-fold compound solutions were made by mixing 10 μl DMSO serial dilution solutions with 90 μl fresh growth medium. The cell culture medium was removed and 180 μl fresh media with FBS and 20 μl of compound solutions were added to each well. The final concentration of DMSO was 1%. Cells were then returned to the CO2 cell culture incubator and incubated at 37° C. for two days (day 3 and day 4). On day 5, the same procedure as what was done on day 2 was repeated. Cell culture medium was removed and fresh medium containing serial dilutions of compounds or reference compounds were added. Cells were returned to the CO2 cell culture incubator and incubated for two more days. On day 8, same procedure was repeated again and fresh medium containing the testing compounds or reference compounds were added and incubated for an additional 2 days. On day 10, 20 μl of MTT reagent (5 mg/ml) was added to each well of the cell culture plate and incubated for 4 h. The cell culture media was removed and 100 μl DMSO was added to each well. The 96-well cell culture plates were shaked horizontally for 10 min and readed in a Varioskan Flash plate reader (Thermo Fisher Scientific) at 520 and 690 nm. The obtained 520 nm absorbance readings substracting corresponding 690 nm reading were analyzed using a commercial graphic software (GraphPad Prism 5) and plotted against the Log scale of the compound concentrations.
Where [4] appears, read: SW620 cells, medium containing 1.5 μg/ml MMS, 5 days (120 hours), MTT.
Setting [5] is: T47D cells, 100 nM MMS, 24 hours, intracellular caspase-3 activity.
Where [6] appears, read: BRCA-2 deficient CAPAN-1 cells, 10 day assay, MTT.

This is an account of results in US20140275711A1, “1-(Arylmethyl)-5,6,7,8-tetrahydroquinazolline-2,4-diones and Analogs and the Use Thereof” (Impact Therapeutics, Inc., priority 2011, published 2014).

One may read the IC50 as the concentration needed to halve the response being measured. The term EC50 denotes the concentration at which the effect is half-maximal.

Read-outs that look alike come from different tables or passages of the source.

In the case of `O=C(c1cccc(Cn2c3c(c(=O)[nH]c2=O)CCCC3)c1)N1CCN(c2ccccn2)CC1` [Example 11, 1-(3-(4-(Pyridin-2-yl)piperazine-1-carbonyl)benzyl)-5,6,7,8-tetrahydroquinazoline-2,4(1H,3H)-dione], the 50% inhibitory concentration (IC50) stood at 6.9 nM in assay [1] (Homo sapiens, SW-620, 120 h) and 32 nM in assay [3] (Homo sapiens, CAPAN-1, 240 h). Also, the half-maximal effective concentration (EC50) in assay [2] (Homo sapiens, T47D, 24 h) turned out to be 31 nM.
On the same counts, the results for `O=C(c1ccccc1)N1CCN(C(=O)c2cc(Cn3c4c(c(=O)[nH]c3=O)CCCC4)ccc2F)CC1` [Example 18, 1-(4-Fluoro-3-(4-benzoylpiperazine-1-carbonyl)benzyl)-5,6,7,8-tetrahydroquinazoline-2,4(1H,3H)-dione] are 9.5 nM, 35 nM and 41 nM.
In the same order, the values of `O=C(c1cccs1)N1CCN(C(=O)c2cc(Cn3c4c(c(=O)[nH]c3=O)CCCC4)ccc2F)CC1` [Example 21, 1-(4-Fluoro-3-(4-(thiophene-2-carbonyl)piperazine-1-carbonyl)benzyl)-5,6,7,8-tetrahydroquinazoline-2,4(1H,3H)-dione] are 1.3 nM, 101 nM and 2.8 nM.
As to `O=C(c1cc(Cn2c3c(c(=O)[nH]c2=O)CCCC3)ccc1F)N1CCN(C(=O)C2CCC2)CC1` [Example 22, 1-(4-Fluoro-3-(4-(cyclobutylcarbonyl)piperazine-1-carbonyl)benzyl)-5,6,7,8-tetrahydroquinazoline-2,4(1H,3H)-dione], the half-maximal inhibitory concentration (IC50) in assay [1] (Homo sapiens, SW-620, 120 h) worked out at 1.7 nM; in assay [3] (Homo sapiens, CAPAN-1, 240 h), 117 nM. In addition, in assay [2] (Homo sapiens, T47D, 24 h), the concentration giving a half-maximal response (EC50) was 2.8 nM.
In the same order, the values of `O=C(c1cc(Cn2c3c(c(=O)[nH]c2=O)CCCC3)ccc1F)N1CCN(c2nccs2)CC1` [Example 23, 1-(4-Fluoro-3-(4-(thiazol-2-yl)piperazine-1-carbonyl)benzyl)-5,6,7,8-tetrahydroquinazoline-2,4(1H,3H)-dione] are 1.5 nM, 49 nM and 1.6 nM.
On the same counts, the results for `O=C(c1cc(Cn2c3c(c(=O)[nH]c2=O)CCCC3)ccc1F)N1CCN(C(=O)C2CCCCC2)CC1` [Example 24, 1-(4-Fluoro-3-(4-(cyclohexylcarbonyl)piperazine-1-carbonyl)benzyl)-5,6,7,8-tetrahydroquinazoline-2,4(1H,3H)-dione] are 3.6 nM, 58 nM and 9.9 nM.
In the same order, the values of `O=C(c1cc(Cn2c3c(c(=O)[nH]c2=O)CCCC3)ccc1F)N1CCN(C(=O)C2CCCC2)CC1` [Example 25, 1-(4-Fluoro-3-(4-(cyclopentylcarbonyl)piperazine-1-carbonyl)benzyl)-5,6,7,8-tetrahydroquinazoline-2,4(1H,3H)-dione] are 1.9 nM, 69 nM and 6.2 nM.
`O=C(c1cc(Cn2c3c(c(=O)[nH]c2=O)CCCC3)ccc1F)N1CCN(c2ccccn2)CC1` [Example 26, 1-(4-Fluoro-3-(4-(pyridin-2-yl)piperazine-1-carbonyl)benzyl)-5,6,7,8-tetrahydroquinazoline-2,4(1H,3H)-dione]: the 50% inhibitory concentration (IC50) stood at 2.3 nM in assay [1] (Homo sapiens, SW-620, 120 h) and 93 nM in assay [3] (Homo sapiens, CAPAN-1, 240 h). The EC50 in assay [2] (Homo sapiens, T47D, 24 h) was 5.6 nM.
On the same counts, the results for `O=C(c1ccco1)N1CCN(C(=O)c2cc(Cn3c4c(c(=O)[nH]c3=O)CCCC4)ccc2F)CC1` [Example 27, 1-(4-Fluoro-3-(4-(furan-2-carbonyl)piperazine-1-carbonyl)benzyl)-5,6,7,8-tetrahydroquinazoline-2,4(1H,3H)-dione] are 9.7 nM, 81 nM and 58 nM.
On the same counts, the results for `O=C(c1cc(Cn2c3c(c(=O)[nH]c2=O)CCCC3)ccc1F)N1CCN(c2cnccn2)CC1` [Example 28, 1-(4-Fluoro-3-(4-(pyrazin-2-yl)piperazine-1-carbonyl)benzyl)-5,6,7,8-tetrahydroquinazoline-2,4(1H,3H)-dione] are 4.9 nM, 297 nM and 14 nM.
In the same order, the values of `O=C(c1cc(Cn2c3c(c(=O)[nH]c2=O)CCCC3)ccc1F)N1CCN(C2CCCCC2)CC1` [Example 30, 1-(4-Fluoro-3-(4-cyclohexylpiperazine-1-carbonyl)benzyl)-5,6,7,8-tetrahydroquinazoline-2,4(1H,3H)-dione] are 12 nM, 1240 nM and 32 nM.
For the molecule `O=C(c1cc(Cn2c3c(c(=O)[nH]c2=O)CCCC3)ccc1F)N1CCN(c2ccccc2)CC1` [Example 33, 1-(4-Fluoro-3-(4-phenylpiperazine-1-carbonyl)benzyl)-5,6,7,8-tetrahydroquinazoline-2,4(1H,3H)-dione], the IC50 came out at 7.6 nM in assay [1] (Homo sapiens, SW-620, 120 h) and 3650 nM in assay [3] (Homo sapiens, CAPAN-1, 240 h). In addition, the EC50 in assay [2] (Homo sapiens, T47D, 24 h) was 187 nM.
In the same order, the values of `O=C(c1ccoc1)N1CCN(C(=O)c2cc(Cn3c4c(c(=O)[nH]c3=O)CCCC4)ccc2F)CC1` [Example 35, 1-(4-Fluoro-3-(4-(furan-3-carbonyl)piperazine-1-carbonyl)benzyl)-5,6,7,8-tetrahydroquinazoline-2,4(1H,3H)-dione] are 4 nM, 285 nM and 12 nM.
In the same order, the values of `O=C(c1ccsc1)N1CCN(C(=O)c2cc(Cn3c4c(c(=O)[nH]c3=O)CCCC4)ccc2F)CC1` [Example 36, 1-(4-Fluoro-3-(4-(thiophene-3-carbonyl)piperazine-1-carbonyl)benzyl)-5,6,7,8-tetrahydroquinazoline-2,4(1H,3H)-dione] are 3.4 nM, 221 nM and 13 nM.
Take `O=C(c1cc(Cn2c3c(c(=O)[nH]c2=O)CCCC3)ccc1F)N1CCN(CC2CCCCC2)CC1` [Example 38, 1-(4-Fluoro-3-(4-(cyclohexylmethyl)piperazine-1-carbonyl)benzyl)-5,6,7,8-tetrahydroquinazoline-2,4(1H,3H)-dione]: the 50% inhibitory concentration (IC50) in assay [1] (Homo sapiens, SW-620, 120 h) came to 10 nM; in assay [3] (Homo sapiens, CAPAN-1, 240 h) it was 2270 nM. In assay [2] (Homo sapiens, T47D, 24 h), the EC50 was found to be 25 nM.
In the same order, the values of `O=C(c1cc(Cn2c3c(c(=O)[nH]c2=O)CCCC3)ccc1F)N1CCN(C(=O)C2CCCO2)CC1` (stereo not drawn) [Example 39, 1-(4-Fluoro-3-(4-(tetrahydrofuran-2-carbonyl)piperazine-1-carbonyl)benzyl)-5,6,7,8-tetrahydroquinazoline-2,4(1H,3H)-dione] are 15 nM, 152 nM and 32 nM.
Regarding `O=C(c1ccc(F)c(Cn2c3c(c(=O)[nH]c2=O)CCCC3)c1)N1CCN(c2ncccn2)CC1` [Example 41], the IC50 in assay [1] (setting [4]) was 4.1 nM; in assay [3] (setting [6]), 19 nM. In assay [2] (setting [5]), the concentration giving a half-maximal response (EC50) is 2.2 nM.
For `O=C(c1ccc(F)c(Cn2c3c(c(=O)[nH]c2=O)CCCC3)c1)N1CCN(C(=O)C2CCCC2)CC1` [Example 42, 1-(6-Fluoro-3-(4-(cyclopentylcarbonyl)piperazine-1-carbonyl)benzyl)-5,6,7,8-tetrahydroquinazoline-2,4(1H,3H)-dione], the IC50 amounted to 4.8 nM in assay [1] (Homo sapiens, SW-620, 120 h) and 146 nM in assay [3] (Homo sapiens, CAPAN-1, 240 h). Besides, the 50% effective concentration (EC50) in assay [2] (Homo sapiens, T47D, 24 h) was determined as 4 nM.
Consider `O=C(c1ccsc1)N1CCN(C(=O)c2ccc(F)c(Cn3c4c(c(=O)[nH]c3=O)CCCC4)c2)CC1` [Example 46, 1-(6-Fluoro-3-(4-(thiophene-3-carbonyl)piperazine-1-carbonyl)benzyl)-5,6,7,8-tetrahydroquinazoline-2,4(1H,3H)-dione], for which the concentration for half-maximal inhibition (IC50) in assay [1] (Homo sapiens, SW-620, 120 h) was determined as 10 nM; in assay [3] (Homo sapiens, CAPAN-1, 240 h) it was 703 nM. Besides, the EC50 in assay [2] (Homo sapiens, T47D, 24 h) is 13 nM.
`O=C(c1ccc(F)c(Cn2c3c(c(=O)[nH]c2=O)CCCC3)c1)N1CCN(c2ccccn2)CC1` [Example 47, 1-(6-Fluoro-3-(4-(pyridin-2-yl)piperazine-1-carbonyl)benzyl)-5,6,7,8-tetrahydroquinazoline-2,4(1H,3H)-dione]: the 50% inhibitory concentration (IC50) in assay [1] (Homo sapiens, SW-620, 120 h) came to 4.6 nM; in assay [3] (Homo sapiens, CAPAN-1, 240 h), 116 nM. Besides, the 50% effective concentration (EC50) in assay [2] (Homo sapiens, T47D, 24 h) came to 6.4 nM.
In the same order, the values of `O=C(c1ccc(F)c(Cn2c3c(c(=O)[nH]c2=O)CCCC3)c1)N1CCN(C(=O)C2CCCCC2)CC1` [Example 49, 1-(6-Fluoro-3-(4-(cyclohexylcarbonyl)piperazine-1-carbonyl)benzyl)-5,6,7,8-tetrahydroquinazoline-2,4(1H,3H)-dione] are 5.3 nM, 123 nM and 7.2 nM.
On the same counts, the results for `O=C(c1ccc(F)c(Cn2c3c(c(=O)[nH]c2=O)CCCC3)c1)N1CCN(C(=O)C2CCC2)CC1` [Example 50, 1-(6-Fluoro-3-(4-(cyclobutylcarbonyl)piperazine-1-carbonyl)benzyl)-5,6,7,8-tetrahydroquinazoline-2,4(1H,3H)-dione] are 16 nM, 1000 nM and 12 nM.
On to `O=C(c1ccc(F)c(Cn2c3c(c(=O)[nH]c2=O)CCCC3)c1)N1CCN(c2nccs2)CC1` [Example 51, 1-(6-Fluoro-3-(4-(thiazol-2-yl)piperazine-1-carbonyl)benzyl)-5,6,7,8-tetrahydroquinazoline-2,4(1H,3H)-dione], for which the IC50 was 13 nM in assay [1] (Homo sapiens, SW-620, 120 h) and 134 nM in assay [3] (Homo sapiens, CAPAN-1, 240 h). Moreover, in assay [2] (Homo sapiens, T47D, 24 h), the 50% effective concentration (EC50) was found to be 11 nM.
With `O=C(c1cc(Cn2c3c(c(=O)[nH]c2=O)CCCC3)ccc1F)N1CCN(C(=O)C2CCOCC2)CC1` [Example 53, 1-(4-Fluoro-3-(4-(tetrahydro-2H-pyran-4-carbonyl)piperazine-1-carbonyl)benzyl)-5,6,7,8-tetraquinazoline-2,4(1H,3H)-dione], the IC50 in assay [1] (setting [4]) was found to be 61 nM; in assay [3] (setting [6]) it was 272 nM. The EC50 in assay [2] (setting [5]) was 98 nM.
